# What was measured:
# BACE1 = BACE1 (Homo sapiens, UniProt P56817); experiment: In vitro enzymatic BACE FRET assay; type: biochemical; details: beta secretase enzyme 0.2 nM, FRET substrate 50 nM, pH 4.2; read-out: BACE1 FRET assay (IC50 class)
# Summary of the method: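 Beta-secretase (0.2 nM) was pre-incubated 1 h with serially diluted inhibitor in 0.05 M acetate pH 4.2, 10% DMSO, 100 uM genapol. Then 50 nM quenched peptide FRET substrate was added for 1 h. The reaction was stopped with Tris to neutral pH and fluorescence read ([…]).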
# [1] = system: Aβ40 in conditioned medium of cells stably expressing Amyloid Precursor Protein (APP); experiment: In vitro BACE cell-based assay (HEK cell assay), Aβ40 sandwich ELISA; details: Homo sapiens, HEK293, 24 h, inhibition of Aβ40, 24 h incubation, read-out: HEK cell assay (IC50 class)
# Summary of the method: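 APP-stably expressing cells (40K/well) grown 24 h, then treated 24 h with 10-point doses from 100 μM or 10 μM top (0.1% DMSO). Secreted Aβ40 quantified by sandwich ELISA (pAb40 capture, biotinylated 6E10 detection, europium time-resolved fluorescence); IC50 from percent inhibition versus concentration.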
# Sequence of BACE1 (P56817 46-501, species assumed): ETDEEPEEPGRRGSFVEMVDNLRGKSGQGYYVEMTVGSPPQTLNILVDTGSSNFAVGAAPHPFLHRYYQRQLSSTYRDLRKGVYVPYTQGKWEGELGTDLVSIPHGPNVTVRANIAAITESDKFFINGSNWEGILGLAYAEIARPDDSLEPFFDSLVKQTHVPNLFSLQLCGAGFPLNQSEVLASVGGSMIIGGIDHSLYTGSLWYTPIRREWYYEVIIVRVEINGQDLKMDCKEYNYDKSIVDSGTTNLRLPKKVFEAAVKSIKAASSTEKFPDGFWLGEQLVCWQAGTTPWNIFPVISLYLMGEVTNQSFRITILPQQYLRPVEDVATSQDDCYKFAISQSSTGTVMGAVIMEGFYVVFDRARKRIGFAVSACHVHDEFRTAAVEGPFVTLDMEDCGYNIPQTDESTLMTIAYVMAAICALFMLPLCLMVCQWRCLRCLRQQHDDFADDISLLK
SMILES,IC50 (BACE1) [nM],IC50 [1] [nM]
"Cc1cccc(C(=O)N2CCC2)c1-c1ccc2nc(N)c(N3CCOCC3)cc2c1 [Example 103, (2-(2-amino-3-morpholinoquinolin-6-yl)-3-methylphenyl)(azetidin-1-yl)methanone]",100 to 500,501 to 1000
"CCN(CC)C(=O)c1cccc(C)c1-c1ccc2nc(N)c(N3CCOCC3)cc2c1 [Example 102, 2-(2-amino-3-morpholinoquinolin-6-yl)-N,N-diethyl-3-methylbenzamide]",100 to 500,1010 to 5000
"COCCN(C)C(=O)c1cccc(C)c1-c1ccc2nc(N)c(N3CCOCC3)cc2c1 [Example 71, 2-(2-amino-3-morpholinoquinolin-6-yl)-N-(2-methoxyethyl)-N,3-dimethylbenzamide]",100 to 500,1010 to 5000
"Nc1nc2ccc(-c3ccccc3F)cc2cc1N1CCOCC1 [Example 220, 6-(2-fluorophenyl)-3-morpholinoquinolin-2-amine]",1010 to 5000,> 5000
"COc1cccnc1C(N)c1cccc(C)c1-c1ccc2nc(N)c(N3CCOCC3)cc2c1 (stereo not shown) [Example 198, 6-(2-(amino(3-methoxypyridin-2-yl)methyl)-6-methylphenyl)-3-morpholinoquinolin-2-amine]",100 to 500,< 100
"Nc1nc2ccc(-c3c(C(=O)N4CCCC4)cccc3C(F)(F)F)cc2cc1N1CCOCC1 [Example 155, (2-(2-amino-3-morpholinoquinolin-6-yl)-3-(trifluoromethyl)phenyl)(pyrrolidin-1-yl)methanone]",100 to 500,1010 to 5000
"Cc1cccc(C(=O)N(C)CCC(C)C)c1-c1ccc2nc(N)c(N3CCOCC3)cc2c1 [Example 119, 2-(2-amino-3-morpholinoquinolin-6-yl)-N-isopentyl-N,3-dimethylbenzamide]",100 to 500,1010 to 5000
"Cc1cccc(N(C)C(=O)CC(C)(C)C)c1-c1ccc2nc(N)c(N3CCOCC3)cc2c1 [Example 50, N-(2-(2-amino-3-morpholinoquinolin-6-yl)-3-methylphenyl)-N,3,3-trimethylbutanamide]",501 to 1000,1010 to 5000
"Cc1cccc(C(=O)c2nccs2)c1-c1ccc2nc(N)c(N3CCOCC3)cc2c1 [Example 158, (2-(2-amino-3-morpholinoquinolin-6-yl)-3-methylphenyl)(thiazol-2-yl)methanone]",100 to 500,1010 to 5000
"Cc1cccc(C(=O)N2CCC(C(F)(F)F)C2)c1-c1ccc2nc(N)c(N3CCOCC3)cc2c1 (stereo not shown) [Example 96, (2-(2-amino-3-morpholinoquinolin-6-yl)-3-methylphenyl)(3-(trifluoromethyl)pyrrolidin-1-yl)methanone]",< 100,1010 to 5000
"Cc1cccc(Cc2cccc(C#N)c2)c1-c1ccc2nc(N)c(N3CCOCC3)cc2c1 [Example 200, 3-(2-(2-amino-3-morpholinoquinolin-6-yl)-3-methylbenzyl)benzonitrile]",< 100,1010 to 5000
"CC=CC(=O)c1cccc(C)c1-c1ccc2nc(N)c(N3CCOCC3)cc2c1 [Example 183, 1-(2-(2-amino-3-morpholinoquinolin-6-yl)-3-methylphenyl)but-2-en-1-one]",100 to 500,1010 to 5000
"CC(C)(C)CCc1cccc(C(=O)N2CCCC2)c1-c1ccc2nc(N)c(N3CCOCC3)cc2c1 [Example 45, (2-(2-amino-3-morpholinoquinolin-6-yl)-3-(3,3-dimethylbutyl)phenyl)(pyrrolidin-1-yl)methanone]",< 100,< 100
"Cc1cccc(Cc2ccc(F)cc2)c1-c1ccc2nc(N)c(N3CCOCC3)cc2c1 [Example 201, 6-(2-(4-fluorobenzyl)-6-methylphenyl)-3-morpholinoquinolin-2-amine]",< 100,1010 to 5000
"CCN(C(=O)c1cccc(C)c1-c1ccc2nc(N)c(N3CCOCC3)cc2c1)C1CC1 [Example 107, 2-(2-amino-3-morpholinoquinolin-6-yl)-N-cyclopropyl-N-ethyl-3-methylbenzamide]",100 to 500,1010 to 5000
"Cc1cccc(C(=O)N2CCCC(C)C2)c1-c1ccc2nc(N)c(N3CCOCC3)cc2c1 (stereo not shown) [Example 115, (2-(2-amino-3-morpholinoquinolin-6-yl)-3-methylphenyl)(3-methylpiperidin-1-yl)methanone]",< 100,501 to 1000
"CO/N=C(\c1ccccc1)c1cccc(C)c1-c1ccc2nc(N)c(N3CCOCC3)cc2c1 [Example 15, (E)-(2-(2-amino-3-morpholinoquinolin-6-yl)-3-methylphenyl)(phenyl)methanone O-methyl oxime]",< 100,501 to 1000
"Cc1cccc(C(=O)N(C)C2CCC(C)CC2)c1-c1ccc2nc(N)c(N3CCOCC3)cc2c1 (stereo not shown) [Example 122, 2-(2-amino-3-morpholinoquinolin-6-yl)-N,3-dimethyl-N-(4-methylcyclohexyl)benzamide]",< 100,501 to 1000
"Cc1cccc(C(O)c2cnccn2)c1-c1ccc2nc(N)c(N3CCOCC3)cc2c1 (stereo not shown) [Example 36, (2-(2-amino-3-morpholinoquinolin-6-yl)-3-methylphenyl)(pyrazin-2-yl)methanol]",1010 to 5000,1010 to 5000
"Cc1cccc(C(=O)n2ccc3ccccc32)c1-c1ccc2nc(N)c(N3CCOCC3)cc2c1 [Example 26, (2-(2-amino-3-morpholinoquinolin-6-yl)-3-methylphenyl)(1H-indol-1-yl)methanone]",100 to 500,> 5000
"CC(C)(C)CCc1cccc(C(=O)N2CCCC2)c1-c1ccc2nc(N)c(N3C[C@@H]4C[C@H]3CO4)cc2c1 [Example 165, (2-(2-amino-3-((1S,4S)-2-oxa-5-azabicyclo[2.2.1]heptan-5-yl)quinolin-6-yl)-3-(3,3-dimethylbutyl)phenyl)(pyrrolidin-1-yl)methanone]",< 100,< 100
"Cc1cccc(C(=O)N(C)c2ccc(F)cc2)c1-c1ccc2nc(N)c(N3CCOCC3)cc2c1 [Example 138, 2-(2-amino-3-morpholinoquinolin-6-yl)-N-(4-fluorophenyl)-N,3-dimethylbenzamide]",100 to 500,1010 to 5000
"Cc1cccc(-n2cc(Cl)c(C)n2)c1-c1ccc2nc(N)c(N3CCOCC3)cc2c1 [Example 34, 6-(2-(4-chloro-3-methyl-1H-pyrazol-1-yl)-6-methylphenyl)-3-morpholinoquinolin-2-amine]",< 100,1010 to 5000
"Nc1nc2ccc(-c3ccccc3C(=O)C3CCCC3)cc2cc1N1CCOCC1 [Example 149, (2-(2-amino-3-morpholinoquinolin-6-yl)phenyl)(cyclopentyl)methanone]",100 to 500,> 5000

# Further lines, results first:
IC50 (BACE1) [nM],IC50 [1] [nM],SMILES
< 100,1010 to 5000,"Cc1cccc(C(=O)N2CCSCC2)c1-c1ccc2nc(N)c(N3CCOCC3)cc2c1 [Example 91, (2-(2-amino-3-morpholinoquinolin-6-yl)-3-methylphenyl)(thiomorpholino)methanone]"
< 100,1010 to 5000,"Cc1cccc(C(=O)c2ccccc2)c1-c1ccc2nc(N)c(N3CCOCC3)cc2c1 [Example 2, (2-(2-amino-3-morpholinoquinolin-6-yl)-3-methylphenyl)(phenyl)methanone]"
< 100,< 100,"Nc1nc2ccc(-c3c(C#CC4CCCCC4)cccc3C(=O)N3CCCC3)cc2cc1N1CCOCC1 [Example 167, (2-(2-amino-3-morpholinoquinolin-6-yl)-3-(cyclohexylethynyl)phenyl)(pyrrolidin-1-yl)methanone]"
< 100,1010 to 5000,"Nc1nc2ccc(-c3ccccc3C(=O)C3CCCCC3)cc2cc1N1CCOCC1 [Example 152, (2-(2-amino-3-morpholinoquinolin-6-yl)phenyl)(cyclohexyl)methanone]"
< 100,< 100,"COc1ccccc1C(N)c1cccc(C)c1-c1ccc2nc(N)c(N3CCOCC3)cc2c1 (stereo not shown) [Example 195, 6-(2-(amino(2-methoxyphenyl)methyl)-6-methylphenyl)-3-morpholinoquinolin-2-amine]"
< 100,1010 to 5000,"Cc1cccc(C(=O)N2CCC(C)CC2)c1-c1ccc2nc(N)c(N3CCOCC3)cc2c1 [Example 80, (2-(2-amino-3-morpholinoquinolin-6-yl)-3-methylphenyl)(4-methylpiperidin-1-yl)methanone]"
< 100,501 to 1000,"Cc1ccccc1C(=O)c1cccc(C)c1-c1ccc2nc(N)c(N3CCOCC3)cc2c1 [Example 3, (2-(2-amino-3-morpholinoquinolin-6-yl)-3-methylphenyl)(o-tolyl)methanone]"
< 100,100 to 500,"Cc1cccc(C(=O)N2CCC(F)(F)C2)c1-c1ccc2nc(N)c(C3CCOCC3)cc2c1 [Example 211, (2-(2-amino-3-(tetrahydro-2H-pyran-4-yl)quinolin-6-yl)-3-methylphenyl)(3,3-difluoropyrrolidin-1-yl)methanone]"
< 100,1010 to 5000,"Cc1cccc(C(=O)c2cccc(C)c2-c2ccc3nc(N)c(N4CCOCC4)cc3c2)c1 [Example 173, (2-(2-amino-3-morpholinoquinolin-6-yl)-3-methylphenyl)(m-tolyl)methanone]"
< 100,1010 to 5000,"Cc1cccc(C(=O)C2CCCCC2)c1-c1ccc2nc(N)c(N3CCOCC3)cc2c1 [Example 181, (2-(2-amino-3-morpholinoquinolin-6-yl)-3-methylphenyl)(cyclohexyl)methanone]"
< 100,501 to 1000,"Cc1cccc(C(=O)N2CCSC2)c1-c1ccc2nc(N)c(N3CCOCC3)cc2c1 [Example 89, (2-(2-amino-3-morpholinoquinolin-6-yl)-3-methylphenyl)(thiazolidin-3-yl)methanone]"

# Source: patent US8735384B2, “Amino heteroaryl compounds as beta-secretase modulators and methods of use” (Amgen Inc., priority 2010, dated 2014)
